Results from ChEMBL document CHEMBL1201862, “PubChem BioAssay data set” (2004).
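1) Cells in 96-well plates. 2) Compound, 48 h, 5 concentrations. 3) Linear interpolation between surrounding doses. 4) Unreached endpoint = highest concentration. GI50 = concentration required for 50% inhibition of growth.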 The source made the active and inactive calls. Rule as the data show it: active = GI50 up to about 1.1 µM and inactive = higher.

Legend:
Test in all cases: growth of human tumour cells (NCI), 48 h
OVCAR-8 = system: OVCAR-8
OVCAR-3 = system: OVCAR-3
PC-3 = system: PC-3
HCT-15 = system: HCT-15
CAKI-1 = system: CAKI-1
SF-539 = system: SF-539
MDA-MB-435 = system: MDA-MB-435
M14 = system: M14
SF-268 = system: SF-268
HOP-92 = system: HOP-92
MDA-MB-231 = system: MDA-MB-231
786-0 = system: 786-0
MCF7 = system: MCF7
Malme-3M = system: Malme-3M
CCRF-CEM = system: CCRF-CEM
NCI-H460 = system: NCI-H460
SN12C = system: SN12C
SK-MEL-28 = system: SK-MEL-28
UO-31 = system: UO-31

| SMILES | GI50 (OVCAR-8) | GI50 (OVCAR-3) | GI50 (PC-3) | GI50 (HCT-15) | GI50 (CAKI-1) | GI50 (SF-539) | GI50 (MDA-MB-435) | GI50 (M14) | GI50 (SF-268) | GI50 (HOP-92) | GI50 (MDA-MB-231) | GI50 (786-0) | GI50 (MCF7) | GI50 (Malme-3M) | GI50 (CCRF-CEM) | GI50 (NCI-H460) | GI50 (SN12C) | GI50 (SK-MEL-28) | GI50 (UO-31) |
| --- | --- | --- | --- | --- | --- | --- | --- | --- | --- | --- | --- | --- | --- | --- | --- | --- | --- | --- | --- |
| Cc1cccc2c(NCCN(C)C)c3cccc(C(=O)NCCN(C)C)c3nc12 | 0.107 µM (active) | 0.31 µM (active) | 0.356 µM (active) | 0.14 µM | 0.187 µM (active) | 0.0649 µM (active) | 0.176 µM (active) | 0.578 µM (active) | 0.316 µM (active) | 0.218 µM (active) | 0.0904 µM (active) | 0.0783 µM (active) | 0.0656 µM (active) | 0.508 µM (active) | 0.156 µM (active) | < 0.0361 µM (active) | 0.0603 µM (active) | 0.199 µM (active) | 0.326 µM (active) |
| CCOC(=O)C1Cc2c(cc3c4c(cccc24)N(C(C)=O)C3)N(C)C1 (configuration not stated) | 3.97 µM (inactive) | 1.44 µM (inactive) | 4.02 µM (inactive) | > 100 µM | 7.71 µM (inactive) | 3.18 µM (inactive) | 2.56 µM (inactive) | 29.9 µM (inactive) | 5.86 µM (inactive) | 1.65 µM (inactive) | 1.4 µM (inactive) | 4.03 µM (inactive) | 32.7 µM (inactive) | 5.18 µM (inactive) | 0.867 µM (active) | > 100 µM (inactive) | 6.04 µM (inactive) | > 100 µM (inactive) | 1.07 µM (active) |
| Oc1cn(-c2ccc(Cl)cc2)nc1-c1nnc(Nc2ccccc2)o1 | 20.9 µM (inactive) | 31.8 µM (inactive) | – | 10.4 µM | 32.3 µM (inactive) | 15.3 µM (inactive) | 16.8 µM (inactive) | 19.6 µM (inactive) | 14.6 µM (inactive) | – | 12.4 µM (inactive) | 16.6 µM (inactive) | 16.9 µM (inactive) | 25.2 µM (inactive) | – | 19.9 µM (inactive) | 16.1 µM (inactive) | 17.7 µM (inactive) | 14.3 µM (inactive) |
| CC1(C)[N+]([O-])=[N+]([O-])C1(Br)c1ccccc1 (configuration not stated) | > 100 µM (inactive) | 39.2 µM (inactive) | > 100 µM (inactive) | 64.6 µM | > 100 µM (inactive) | > 100 µM (inactive) | > 100 µM (inactive) | > 100 µM (inactive) | 65.3 µM (inactive) | > 100 µM (inactive) | 59.6 µM (inactive) | 68.9 µM (inactive) | 72.9 µM (inactive) | > 100 µM (inactive) | 39.9 µM (inactive) | 68.2 µM (inactive) | > 100 µM (inactive) | > 100 µM (inactive) | 28.8 µM (inactive) |
| C=C[C@@H]1C(CO)=CCC2[C@H]1CCC1C(C)(C)C(=O)CC[C@]21C (some centres not stated) | – | > 100 µM (inactive) | > 100 µM (inactive) | > 100 µM | > 100 µM (inactive) | > 100 µM (inactive) | > 100 µM (inactive) | > 100 µM (inactive) | > 100 µM (inactive) | > 100 µM (inactive) | – | > 100 µM (inactive) | > 100 µM (inactive) | > 100 µM (inactive) | > 100 µM (inactive) | > 100 µM (inactive) | > 100 µM (inactive) | > 100 µM (inactive) | > 100 µM (inactive) |
| C=C(C)[C@H]1CC[C@@]23O[C@@H]2[C@@H](C[C@@]2(C)CC(=O)[C@H](CC(=O)C1)O2)OC(=O)[C@@]12CC[C@H](C(=C)C)CC(=O)C[C@H]4O[C@](C)(CC4=O)C[C@@H](OC3=O)[C@@H]1O2 [SINGARDIN] | > 100 µM (inactive) | > 100 µM (inactive) | > 100 µM (inactive) | > 100 µM | > 100 µM (inactive) | > 100 µM (inactive) | > 100 µM (inactive) | > 100 µM (inactive) | – | > 100 µM (inactive) | > 100 µM (inactive) | > 100 µM (inactive) | > 100 µM (inactive) | > 100 µM (inactive) | 91.8 µM (inactive) | – | > 100 µM (inactive) | > 100 µM (inactive) | > 100 µM (inactive) |
